Data from patent US20200360391A1, “Medicinal Composition for Treating Intractable Heart Disease” (Osaka University, priority 2016, published 2020).

Key:
[1] = tested on: rat coronary artery complete ischemia model; assay: Model of ischemia (MI) by rat coronary artery complete ligation (Tests 1 and 2): echocardiography, body weight; settings: for Body weight / % FS: value of change compared with the value on Day 1 / EF: value of change compared with the value on Day 1: MI Test 1, NOAEL doses, mean ± S.D.
[2] = tested on: spontaneous dilated cardiomyopathy (J2N-k) hamster model; assay: Spontaneous dilated cardiomyopathy (J2N-k) hamster model, 8-week administration from 20 weeks of age (Tests 1-3): echocardiography, body weight
How it was run: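 Male J2N-k δ-glycan-deficient hamsters (delivered at 18 weeks; 2-week acclimation) were dosed by oral gavage twice daily for 8 weeks in 0.5% CMC-Na (G in distilled water; 5 mL/kg) at human-equivalent doses, e.g. cilostazol 1.7 mg/kg. Camostat PLGA preparation was given 10 mg/kg s.c. every 4 weeks. Echocardiographic EF/FS changes from baseline were assessed at 4 and 8 weeks versus vehicle.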

[3] = tested on: spontaneous dilated cardiomyopathy (J2N-k) hamster model; assay: Long-term (36 weeks) administration in J2N-k hamster model: cardiac function, survival rate; assay type: in vivo
Protocol: ONO-1301 and (K) candesartan, which is ARB, were each individually orally administered to a δ-glycan-deficient spontaneous dilated cardiomyopathy (J2N-k) hamster model twice daily repeatedly for 36 weeks, after the onset of pathological condition (20 weeks old); and changes in cardiac function and survival rates in long-term administration were compared for evaluation. Specifically, echocardiographic measurement was performed after the onset of pathological condition (20 weeks old); the animals were grouped evenly based on the ejection fractions (EF values) and the body weights (Table 15), and each test substance was individually administered for 36 weeks.
The test was performed in the same manner as described in the section “1. Investigation of effects in spontaneous dilated cardiomyopathy (J2N-k) hamster model” above.
ONO-1301 was administered at 3 mg/kg twice per day. Candesartan was administered at 3 mg/kg once per day, and only vehicle was administered at the second administration. To the control group, vehicle (0.5% CMC-Na) was administered twice daily.

[4] = tested on: dogs; settings: repeated oral administration in dogs; cited from earlier work
[5] = tested on: rats; settings: repeated oral administration in rats; cited from earlier work
[6] = tested on: canine rapid pacing severe dilated cardiomyopathy model; assay: Canine rapid pacing severe dilated cardiomyopathy model, long-term repeated oral administration; assay type: in vivo
Protocol: (§1) A sham operation was performed for a Sham group. After the pacemaker was operated, and it was confirmed in an electrocardiogram (Lead II) that the heartbeat was linked to the pulse rate, the incision site was sutured.
(§2) The animals were grouped evenly based on the cardiac function (EF) 4 weeks after rapid pacing. […] An empty capsule was administered to the control group in the same manner.
(§3) Electrocardiography (Lead II) was performed once a week during the period of induction of pathological condition (4 weeks). After administration of the test substance, electrocardiography was performed at the time of echocardiographic measurement. Examination with a stethoscope was performed every day. Specifically, the number of beats per 10 seconds was measured every day, and if an abnormality was found in examination with a stethoscope, an electrocardiogram was measured to confirm the presence or absence of pacing errors.
(§4) The general condition of the animals (death, posture, activity, color of gums, the presence or absence of ascites, feces, etc.) and food intake were observed every day (at the time of administration in the morning and in the evening, i.e., twice). […] The survival rate was observed twice daily for 6 months from the day of the start of administration of the test substance. Moribund animals were determined to be dead when they had no reaction in at least one item of examination of pinna, auditory, and nociception reflexes.
(§5) The body weight was measured on the date of implantation of the pacemaker, the date of operation of the pacemaker, and every week thereafter.
(§6) Echocardiographic measurement was performed before the preparation of the model (Pre); Week 4 (at the time of grouping) (before administration of the test substance); and 2 weeks, 4 weeks (1 month), 2 months, 3 months, 4 months, 5 months, and 6 months (at the time of dissection) after the start of administration of the test substance, as measurement points.
(§7) The echocardiographic measurement was performed without anesthesia, using an ultrasound imaging apparatus. A sector probe (10 MHz) was placed on the chest, and the diastolic left ventricular internal dimension (LVIDd), the systolic left ventricular internal dimension (LVIDs), the interventricular septal thickness at end-diastole (IVSTd), and the left ventricular posterior wall thickness in end diastole (LVPWd) were measured at M-mode. Moreover, the ejection fraction […] and the fractional shortening […] were calculated.

[7] = as above; assay type: in vivo; settings: dog, in vivo; after oral administration, 3 mg/kg
Protocol: as §1, §2, §3, §4, §5, §6, §7

[8] = Test 1, p.o. b.i.d., NOAEL-based dose

Structure (SMILES): O=C(O)COc1cccc2c1CCC=C2CCO/N=C(\c1ccccc1)c1cccnc1 [Compound A, (E)-[5-[2-[1-phenyl-1-(3-pyridyl)methylideneaminooxy]ethyl]-7,8-dihydronaphthalen-1-yloxy]acetic acid]
- Action on left ventricular systolic function ([1]; MI Test 1, 28-day repeated oral administration b.i.d., NOAEL-based doses): suppression action on the deterioration of left ventricular systolic function
- Body weight ([1]; 1 Day (grouping)): 231.4 ± 4.9 g
- % FS: value of change compared with the value on Day 1 ([1]; 7 Day): 1%
- Body weight ([1]; 7 Day): 237.8 ± 15.0 g
- EF: value of change compared with the value on Day 1 ([1]; 7 Day): 1%
- % FS: value of change compared with the value on Day 1 ([1]; 14 Day): 0%
- Body weight ([1]; 14 Day): 257.1 ± 20.7 g
- EF: value of change compared with the value on Day 1 ([1]; 14 Day): 0%
- Body weight ([1]; 21 Day): 277.1 ± 17.3 g
- % FS: value of change compared with the value on Day 1 ([1]; 29 Day): -3%
- Body weight ([1]; 29 Day): 293.6 ± 18.9 g
- EF: value of change compared with the value on Day 1 ([1]; 29 Day): -6%
- Body weight 0 W ([2]; Test 1, at grouping): 112.5 g
- LVIDd 4 W ([2]; Test 1, p.o. b.i.d.): 6.9 mm
- LVIDd 8 W ([2]; Test 1, p.o. b.i.d.): 7.6 mm
- LVIDs 4 W ([2]; Test 1, p.o. b.i.d.): 5.6 mm
- LVIDs 8 W ([2]; Test 1, p.o. b.i.d.): 6.2 mm
- Body weight 4 W [2, 8]: 120.2 g
- Body weight 8 W [2, 8]: 120.6 g
- Effect in long-term administration compared with candesartan [3]: effect superior to that of candesartan
- EF compared with control group ([3]; 3.0 mg/kg): significant improvement effect
- FS% compared with control group ([3]; 3.0 mg/kg): Significantly higher values
- No-observed-adverse-effect level [4]: 3 mg/kg
- No-observed-adverse-effect level [5]: 3 mg/kg
- Number of animals alive 26 weeks after start of administration ([6]; 3 mg/kg p.o. twice daily): 1/6
- Time after start of administration at which death was first observed ([6]; 3 mg/kg p.o. twice daily): 44 days
- Survival rate (Kaplan-Meier curve) compared with control ([6]; 3 mg/kg p.o. twice daily, 26 weeks): significant prolonging effect on the survival rate
- Amount of change (Δ) in EF compared with control ([6]; 2 weeks and 4 weeks after start of administration): significantly higher
- Body weight gain compared with control ([6]; 6 weeks and 8 weeks after start of administration): suppressed
- Effect on heart rate in echocardiography at Tmax ([6]; oral 3 mg/kg): no effect on the heart rate
- Tmax [7]: 1.5 to 2.5 h
